# Patent US20240264159A1 (priority 2021, published 2024)
# Molecular target: Spike SARS-CoV-2 foreign nanoparticles / coated host ACE2 nanoparticles (Severe acute respiratory syndrome coronavirus 2, UniProt P0DTC2, D614G)
# Format: biochemical
smiles,measurement,value
C[C@@H]1O[C@@H](O[C@H]2C[C@@H](O)[C@]3(CO)[C@H]4[C@H](O)C[C@]5(C)[C@@H](C6=CC(=O)OC6)CC[C@]5(O)[C@@H]4CC[C@]3(O)C2)[C@H](O)[C@H](O)[C@H]1O [ouabain],"neutralization/blocking of fusion, coated host ACE2 nanoparticles",Neutralization was further blocked
